From patent US20080009545A1, “Anticancer agents” (The Ohio State University Research Foundation, priority 2006, published 2008)

How the values were obtained:
PC-3 cells [1] = test: Apoptosis detection in PC-3 cells (cell death ELISA, cytochrome c release, PARP cleavage); type: cell-based, human; conditions: 24 h, serum-free medium
Method: Apoptosis detection by ELISA—Induction of apoptosis was assessed with a Cell Death Detection ELISA kit (Roche Diagnostics) by following the manufacturer's instruction. This test is based on the quantitative determination of cytoplasmic histone-associated DNA fragments in the form of mononucleosomes and oligonucleosomes after induced apoptotic death. In brief, 5×10^6 cells were cultured in a T-25 flask in 10% FBS-containing medium for 24 h, and were treated with the test agents at various concentrations in serum-free medium for 24 hours. Both floating and adherent cells were collected; cell lysates equivalent to 5×10^5 cells were used in the ELISA.
Western blot analysis of cytochrome c release into the cytoplasm—Cytosolic-specific, mitochondria-free lysates were prepared according to an established procedure (18). In brief, after individual treatments for 24 h, both the incubation medium and adherent cells in T-75 flasks were collected and centrifuged at 600×g for 5 min. […] Bands were transferred to nitrocellulose membranes and analyzed by immunoblotting with anti-cytochrome c antibodies as described below. […]

Bcl-xL = Bcl-xL (Homo sapiens, UniProt Q07817); test: Competitive fluorescence polarization assay, Bak BH3 peptide binding to Bcl-xL; conditions: for activity in inhibiting Bak peptide-Bcl-xL binding: even at 100 μM
Sequence of Bcl-xL (Q07817 1-212 limits assumed): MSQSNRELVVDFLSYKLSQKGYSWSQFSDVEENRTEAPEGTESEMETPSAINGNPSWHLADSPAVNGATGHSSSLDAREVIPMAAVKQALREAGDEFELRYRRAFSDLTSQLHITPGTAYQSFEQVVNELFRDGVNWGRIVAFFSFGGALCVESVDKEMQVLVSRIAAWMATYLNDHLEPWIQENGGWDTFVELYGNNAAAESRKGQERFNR
Method: Competitive fluorescence polarization assay—The binding affinity of the test agent to Bcl-XL was analyzed by a competitive fluorescence polarization assay in which the ability of the agent to displace the binding of a Bak BH3-domain peptide to either Bcl-2 or Bcl-XL was determined. Flu-BakBH3, a Bak-BH3 peptide labeled at the NH2 terminus with fluorescein, was purchased from Genemed Synthesis (San Francisco, Calif.). COOH-terminal-truncated, His-tagged Bcl-XL was purchased from EMD Biosciences (San Diego, Calif.) and soluble glutathione S-transferase-fused Bcl-2 was obtained from Santa Cruz Biotechnology. The binding analysis was carried out in a dual-path length quartz cell with readings taken at […] at room temperature using a luminescence spectrometer according to an established procedure (19).
(§1) Determination of IC50 values—Data from cell viability and fluorescence polarization assays were analyzed by using the CalcuSyn software (Biosoft, Ferguson, Mo.) to determine IC50 values, in which the calculation was based on the medium-effect equation [i.e., log(fa/fu)=m log(D)−m log(Dm), where fa and fu denote fraction affected and unaffected, respectively; m represents the Hill-type coefficient signifying the sigmoidicity of the dose-effect curve; and D and Dm are the dose used and IC50, respectively.

Bcl-2/Bak interactions = molecular target: T1, Bcl-2/Bak interactions (Homo sapiens, UniProt P10415); test: Co-immunoprecipitation of Bcl-2/Bak in PC-3 cells; type: cell-based
T1 construct: endogenous in cells; host or cells: PC-3 cells
T1 sequence (P10415 whole entry): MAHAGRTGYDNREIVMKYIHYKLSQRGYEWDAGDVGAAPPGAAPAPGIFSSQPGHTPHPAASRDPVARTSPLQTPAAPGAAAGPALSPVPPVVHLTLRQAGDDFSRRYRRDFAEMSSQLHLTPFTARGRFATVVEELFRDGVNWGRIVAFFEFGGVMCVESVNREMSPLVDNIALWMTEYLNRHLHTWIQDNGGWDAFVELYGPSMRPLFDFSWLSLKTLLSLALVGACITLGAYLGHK
Method: (§2) Immunoblotting—Cells were seeded in 10% FBS-containing RPMI-1640 medium for 24 h and treated with various agents as aforementioned. After individual treatments for 24 h, the adherent cells in T-25 or T-75 flasks were scraped, combined with the medium, and centrifuged at 2200 rpm for 10 min. The […] were recovered, placed on ice, and triturated with 20 to 50 μL of a chilled lysis buffer (M-PER Mammalian Protein Extraction Reagent; Pierce, Rockford, Ill.), to which was added 1% protease inhibitor cocktail (set III; EMD Biosciences, Inc., San Diego, Calif.). After a 30-min incubation on ice, the mixture was centrifuged at 16,100×g for 3 min. […]
The pellet was resuspended in ice-cold 0.5 mL of radioimmunoprecipitation assay buffer (50 mM Tris-HCl, pH 7.4, 1% Nonidet P-40, 0.25% sodium deoxycholate, 150 mM NaCl, 1 mM EDTA, and 1% protease inhibitor cocktail) and gently mixed on an orbital shaker at 4° C. for 15 min, followed by centrifugation at 14,000×g for 15 min to yield cell lysates. […] Equal amounts of proteins from these lysates, as determined by the Bradford assay, were mixed with anti-Bcl-2 or anti Bcl-XL antibodies in an orbital shaker at 23° C. for 2 h, followed by 100 μL of protein A-agarose bead slurry at 4° C. for 12 h. […]

PrEC cells = test: MTT cell viability, normal prostate epithelial cells (PrECs); type: cell-based, human; conditions: 24 h, Prostate Epithelial Cell Basal Medium with growth supplements
Method: (§3) Cell culture—LNCaP androgen-dependent (p53+/+) and PC-3 androgen-nonresponsive (P53−/−) prostate cancer cells were obtained from the American Type Culture Collection (Manassas, Va.). The preparation of the stable Bcl-xL-overexpressing LNCaP clone B3 (LNCaP/B3) was previously described (18). PC-3, LNCaP, and LNCaP/B3 cells were maintained in RPMI 1640 supplemented with 10% fetal bovine serum (FBS) at 37° C. in a humidified incubator containing 5% carbon dioxide. Normal human prostate epithelial (PrEC) cells were purchased from Cambrex Bio Science Walkersville, Inc. (East Tutherford, N.J.). Cells were maintained in Prostate Epithelial Cell Medium with growth supplements at 37° C. in a humidified incubator containing 5% carbon dioxide. The recommended seeding density for subculture is 2,500 cells/cm^2. It takes 6-9 days from subculture to attain confluency.
Cell viability analysis—The effect of individual test agents on cell viability was assessed by using the MTT assay in 6 to 12 replicates. PC3, LNCaP, and B3-LNCaP cells were seeded and incubated in poly-p-lysine-coated, 96-well, flat-bottomed plates in RPMI 1640 medium supplemented with 10% FBS medium for 24 hours. PrEC cells were seeded at the recommend density in 96-well, flat-bottomed plates in Prostate Epithelial Cell Medium with growth supplements for 3 days. All cells were exposed to various concentrations of test agents dissolved in ethanol (for α-tocopherol, α-tocopheryl succinate, and TS-3) or DMSO (all other test agents used) with a final concentration of 0.1% in serum-free RPMI 1640 medium for PC3, LNCaP, and LNCaP/B3 cells or in Prostate Epithelial Cell Basal Medium with growth supplements for PrEC cells. Controls received DMSO or ethanol vehicle at a concentration equal to that in drug-treated cells. The medium was removed, replaced by 200 μL of 0.5 mM MTT in 10% FBS-containing RPMI 1640 medium, and cells were incubated in the CO2 incubator at 37° C. for 2 h. […] Absorbance at 570 nm was determined on a plate reader.

Bcl-xL/Bak interactions = molecular target: T2, Bcl-xL/Bak interactions (Homo sapiens, UniProt Q07817); test: Co-immunoprecipitation of Bcl-xL/Bak in PC-3 cells; type: cell-based
T2 construct: the endogenous counterpart in PC-3 cells; endogenous in cells; host or cells: PC-3 cells
T2 sequence (Q07817 whole entry): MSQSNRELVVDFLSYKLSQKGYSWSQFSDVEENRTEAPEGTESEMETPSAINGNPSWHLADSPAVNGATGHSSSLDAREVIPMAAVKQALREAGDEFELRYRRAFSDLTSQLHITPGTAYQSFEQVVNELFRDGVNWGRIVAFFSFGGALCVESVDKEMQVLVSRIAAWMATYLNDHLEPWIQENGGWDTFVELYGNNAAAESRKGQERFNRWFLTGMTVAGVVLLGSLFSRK
Method: as §2
Co-immunoprecipitation—PC3 cells treated with 40 μM α-tocopheryl succinate or 10 μM TS-1 for 24 h were scraped off the flask, transferred into centrifuge tubes, and centrifuged at 2200 rpm for 10 min to pellet the cells. […] Equal amounts of proteins from these lysates, as determined by the Bradford assay, were mixed with anti-Bcl-2 or anti Bcl-XL antibodies in an orbital shaker at 23° C. for 2 h, followed by 100 μL of protein A-agarose bead slurry at 4° C. for 12 h. […]

LNCaP cells = test: MTT cell viability, LNCaP cells; type: cell-based, human; conditions: for activity in suppressing cell viability: even at 100 μM, 24 h
Method: as §3
(§4) Cell viability analysis—The effect of individual test agents on cell viability was assessed by using the MTT assay in 6 to 12 replicates. PC3, LNCaP, and B3-LNCaP cells were seeded and incubated in poly-p-lysine-coated, 96-well, flat-bottomed plates in RPMI 1640 medium supplemented with 10% FBS medium for 24 hours. PrEC cells were seeded at the recommend density in 96-well, flat-bottomed plates in Prostate Epithelial Cell Medium with growth supplements for 3 days. […] Absorbance at 570 nm was determined on a plate reader.
as §1

PC-3 cells [2] = test: MTT cell viability, PC-3 cells; type: cell-based, human; conditions: for activity in suppressing cell viability: even at 100 μM, 24 h
Method: as §3, §4, §1

Bcl-2 = Bcl-2 (Homo sapiens, UniProt P10415); test: Competitive fluorescence polarization assay, Bak BH3 peptide binding to Bcl-2; conditions: Flu-BakBH3, read-out: IC50, disruption of BH3 domain-mediated interactions (Bak BH3 peptide) with Bcl-2
Sequence of Bcl-2 (P10415 whole entry, species assumed, the tested form may be a part): as the sequence (P10415 whole entry) above
Method: Competitive fluorescence polarization assay—The binding affinity of the test agent to Bcl-XL was analyzed by a competitive fluorescence polarization assay in which the ability of the agent to displace the binding of a Bak BH3-domain peptide to either Bcl-2 or Bcl-XL was determined. Flu-BakBH3, a Bak-BH3 peptide labeled at the NH2 terminus with fluorescein, was purchased from Genemed Synthesis (San Francisco, Calif.). COOH-terminal-truncated, His-tagged Bcl-XL was purchased from EMD Biosciences (San Diego, Calif.) and soluble glutathione S-transferase-fused Bcl-2 was obtained from Santa Cruz Biotechnology. […] Determination of IC50 values—Data from cell viability and fluorescence polarization assays were analyzed by using the CalcuSyn software (Biosoft, Ferguson, Mo.) to determine IC50 values, in which the calculation was based on the medium-effect equation [i.e., log(fa/fu)=m log(D)−m log(Dm), where fa and fu denote fraction affected and unaffected, respectively; m represents the Hill-type coefficient signifying the sigmoidicity of the dose-effect curve; and D and Dm are the dose used and IC50, respectively.

LNCaP/B3 cells = test: MTT cell viability, Bcl-xL-overexpressing LNCaP (LNCaP/B3) cells; type: cell-based, human; conditions: LNCaP/B3 vs LNCaP cells, 24-h exposure; to a degree greater than that of PC-3 cells
Method: as §3, §4

[3] = tested on: Bcl-xL, Bcl-2, Bax, Bak, Bad, and Bid; test: Expression of Bcl-2 family members in PC-3 cells (Western blot); type: cell-based, human; conditions: 24 h, serum-free RPMI 1640
Method: (§5) Immunoblotting—Cells were seeded in 10% FBS-containing RPMI-1640 medium for 24 h and treated with various agents as aforementioned. After individual treatments for 24 h, the adherent cells in T-25 or T-75 flasks were scraped, combined with the medium, and centrifuged at 2200 rpm for 10 min. The […] were recovered, placed on ice, and triturated with 20 to 50 μL of a chilled lysis buffer (M-PER Mammalian Protein Extraction Reagent; Pierce, Rockford, Ill.), to which was added 1% protease inhibitor cocktail (set III; EMD Biosciences, Inc., San Diego, Calif.). After a 30-min incubation on ice, the mixture was centrifuged at 16,100×g for 3 min. Two μL of the suspension was taken for protein analysis using the Bradford assay kit (Bio-Rad, Hercules, Calif.); to the remaining solution was added the same volume of 2× SDS-polyacryl-amide gel electrophoresis sample loading buffer (100 mM Tris-HCl, pH 6.8, 4% SDS, 5% β-mercaptoethanol, 20% glycerol, and 0.1% bromphenol blue). The mixture was boiled for 10 min. Equal amounts of proteins were loaded onto 8-12% SDS-polyacrylamide gels. After electrophoresis, protein bands were transferred to nitrocellulose membranes in a semidry transfer cell. […]

caspase-9 = test: Caspase-9 activation in PC-3 cells (Western blot); type: cell-based, human; conditions: 24 h
Method: as §5

[4] = 24-h exposure, serum-free RPMI 1640, MTT, read-out: IC50, proliferation inhibition

## Cc1c(C)c2c(c(C)c1OC(=O)CCC(=O)O)CCC(C)(CCCC(C)CCCC(C)C)O2 (stereo not shown) [TS-1, succinic acid mono-[2-(4,8-dimethyl-nonyl)-2,5,7,8-tetramethyl-chroman-6-yl]ester]
PC-3 cells [1]
  apoptotic death: evidenced by DNA fragmentation, cytochrome c release, and PARP cleavage
Bcl-xL
  difference in IC50 between TS-1 and α-tocopheryl succinate in blocking Bak peptide binding to Bcl-xL: 3 fold
Bcl-2/Bak interactions; 10 μM
  intracellular binding of Bak to Bcl-2: abolished
PrEC cells
  antiproliferative effect on normal prostate epithelial cells: resistant
Bcl-xL/Bak interactions; 10 μM
  intracellular binding of Bak to Bcl-xL: abolished

## Cc1c(C)c2c(c(C)c1OC(=O)CCC(=O)O)CCC(C)(C)O2 [TS-3, succinic acid mono-(2,2,5,7,8-pentamethyl-chroman-6-yl)ester]
LNCaP cells
  activity in suppressing cell viability: lacked appreciable activity
PC-3 cells [2]
  activity in suppressing cell viability: lacked appreciable activity
Bcl-xL
  Bcl-xL binding affinity (effect of structural change): abrogated the binding affinity
  activity in inhibiting Bak peptide-Bcl-xL binding: lacked appreciable activity

## Cc1c(C)c2c(c(C)c1O)CCC(C)(CCCC(C)CCCC(C)C)O2 (stereo not shown) [TS-4, 2-(4,8-dimethyl-nonyl)-2,5,7,8-tetramethyl-chroman-6-ol]
LNCaP cells
  activity in suppressing cell viability: lacked appreciable activity
PC-3 cells [2]
  activity in suppressing cell viability: lacked appreciable activity
Bcl-xL
  activity in inhibiting Bak peptide-Bcl-xL binding: lacked appreciable activity

## Cc1c(C)c2c(c(C)c1OCCC(=O)O)CCC(C)(CCCC(C)CCCC(C)C)O2 (stereo not shown) [TS-5, 3-[2,5,7,8-tetramethyl-2-(4,8-dimethyl-nonyl)-chroman-6-yloxy]propionic acid]
PrEC cells
  antiproliferative effect on normal prostate epithelial cells: resistant

## Cc1c(C)c2c(c(C)c1OC(=O)CCC(=O)O)CC[C@@](C)(CCC[C@H](C)CCC[C@H](C)CCCC(C)C)O2 [α-tocopheryl succinate, reference compound]
Bcl-2
  IC50: 26 ± 2 µM
LNCaP cells; [4]
  IC50: 15 µM
PC-3 cells [1]
  apoptotic death: evidenced by DNA fragmentation, cytochrome c release, and PARP cleavage
LNCaP/B3 cells
  resistance to induced cell death by ectopic Bcl-xL expression: substantially increased the resistance
[3]
  Bad expression: decrease
  expression level of Bcl-2 members other than Bad (Bcl-xL, Bcl-2, Bax, Bak, Bid): did not cause appreciable changes
PC-3 cells [2]; [4]
  IC50: 40 µM
Bcl-xL; fluorescence polarization, Flu-BakBH3, read-out: IC50, disruption of BH3 domain-mediated interactions (Bak BH3 peptide) with Bcl-xL
  IC50: 26 ± 2 µM
caspase-9
  caspase-9 activation: in a dose-dependent manner
Bcl-2/Bak interactions; 40 μM, 12 h, vs DMSO control
  level of Bak associated with Bcl-2: significantly reduced
PrEC cells
  antiproliferative effect on normal prostate epithelial cells: resistant
Bcl-xL/Bak interactions; 40 μM, 12 h, vs DMSO control
  level of Bak associated with Bcl-xL: significantly reduced
